Emax and EC50 data for 54 molecules are collected here from US9868746B2, “Substituted 5-aminothieno[2,3-C]pyridazine-6-carboxamide analogs as positive allosteric modulators of the muscarinic acetylcholine receptor M4” (Vanderbilt University, priority 2012, dated 2018).

This assay concerns the target T1, mAChR M4 (Homo sapiens, UniProt P08173).
T1 construct: expressed in transfected cells; host or cells: CHO-K1 cells stably transfected with M4 cDNA and chimeric G-protein Gqi5
T1 sequence (P08173 1-479): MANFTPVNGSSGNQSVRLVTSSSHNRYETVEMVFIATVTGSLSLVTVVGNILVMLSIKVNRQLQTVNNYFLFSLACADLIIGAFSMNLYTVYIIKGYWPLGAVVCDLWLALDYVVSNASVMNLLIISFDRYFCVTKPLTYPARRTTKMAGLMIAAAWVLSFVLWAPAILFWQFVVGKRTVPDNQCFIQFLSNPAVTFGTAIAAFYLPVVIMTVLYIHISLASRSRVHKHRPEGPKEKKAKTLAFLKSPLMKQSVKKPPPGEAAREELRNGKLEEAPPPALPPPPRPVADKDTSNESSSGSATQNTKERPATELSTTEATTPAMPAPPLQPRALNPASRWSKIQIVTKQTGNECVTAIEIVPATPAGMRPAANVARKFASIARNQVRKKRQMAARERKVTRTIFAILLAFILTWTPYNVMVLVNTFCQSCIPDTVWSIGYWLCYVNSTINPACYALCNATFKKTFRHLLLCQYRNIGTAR
As to the kind of experiment: mAChR M4 cell-based functional assay (calcium mobilization, potentiation of EC20 acetylcholine response). As to conditions: for Emax at 30 µM: % ACh maximum at 30 μM.

[1] abbreviates: mAChR M4 cell-based functional assay, >10,000 estimated for low potency compounds without plateau, read-out: EC50.

One may read the Emax as the maximal effect, on the per cent scale that the assay sets. What is called EC50 is the concentration giving half of the maximal effect.

Molecules are shown by their SMILES. Like-named read-outs stand apart in the source and are kept apart here.

With `Cc1nnc2sc(C(=O)NC3CN(C(=O)c4c(F)cccc4F)C3)c(N)c2c1C` [Example B408], the Emax at 30 µM was determined as 65%. The EC50 under setting [1] was 270 nM.

With `COc1ccccc1C1(OC)CN(C(=O)c2sc3nnc(C)c(C)c3c2N)C1` [Example B294], the maximal effect (Emax) at 30 µM was 43%. For the same molecule, the EC50 under setting [1] was 1100 nM.

Regarding `Cc1nnc2sc(C(=O)NCc3ccc(-c4ccc(F)nc4)cc3)c(N)c2c1C` [Example B459], the Emax at 30 µM is 88%. Moreover, the EC50 under setting [1] was 15 nM.

As to `Cc1nnc2sc(C(=O)Nc3ccccn3)c(N)c2c1C` [Example B36], the Emax at 30 µM is 29%. Also, under setting [1], the EC50 is 1700 nM.

On to `Cc1nnc2sc(C(=O)NCc3ccc(CN4CCCC4)cc3)c(N)c2c1C` [Example B492], for which the Emax at 30 µM came to 76%. The EC50 under setting [1] is 38 nM.

For the molecule `Cc1nnc2sc(C(=O)NCc3ccc4c(cnn4C)c3)c(N)c2c1C` [Example B251], the Emax at 30 µM amounted to 79%. The EC50 under setting [1] was 190 nM.

As to `Nc1c(C(=O)NCC2CC2)sc2nnc3c(c12)CCCC3` [Example B54], the Emax at 30 µM came out at 37%. In addition, the EC50 under setting [1] is 790 nM.

Turning to `COC1(c2ccc(Cl)cc2)CN(C(=O)c2sc3nnc(C)c(C)c3c2N)C1` [Example B314], the Emax at 30 µM amounted to 49%. The EC50 under setting [1] was 2800 nM.

Regarding `Cc1nnc2sc(C(=O)NC3CN(C(=O)Oc4cccc(Cl)c4)C3)c(N)c2c1C` [Example B359], the Emax at 30 µM came to 55%. Moreover, the concentration giving a half-maximal response (EC50) under setting [1] was 16 nM.

With `Cc1nnc2sc(C(=O)NC3CNC3)c(N)c2c1C` [Example B81], the Emax at 30 µM came to 34%. For the same molecule, under setting [1], the EC50 was above 10000 nM.

For `Cc1nnc2sc(C(=O)N3CC(NC(=O)c4ccccc4)C3)c(N)c2c1C` [Example B169], the Emax at 30 µM was found to be 68%. In addition, the EC50 under setting [1] is 1500 nM.

Consider `Cc1nnc2sc(C(=O)NCc3ccc(Br)cc3)c(N)c2c1C` [Example B448, 5-amino-N-(4-bromobenzyl)-3,4-dimethylthieno[2,3-c]pyridazine-6-carboxamide], for which the maximal effect (Emax) at 30 µM stood at 75%. Under setting [1], the EC50 is 18 nM.

As to `COc1ncc(CNC(=O)c2sc3nnc(C)c(C)c3c2N)cc1F` [Example B439], the maximum response (Emax) at 30 µM was 78%. Also, under setting [1], the EC50 was 25 nM.

On to `Cc1nnc2sc(C(=O)NCc3cccc(S(C)(=O)=O)c3)c(N)c2c1C` [Example B44], for which the Emax at 30 µM is 75%. Moreover, the EC50 (EC50 (nM)) is 420 nM.

Regarding `Cc1nnc2sc(C(=O)NC3CN(c4nccs4)C3)c(N)c2c1C` [Example B430], the Emax at 30 µM worked out at 58%. Moreover, under setting [1], the EC50 is 2100 nM.

As to `Cc1nnc2sc(C(=O)NCC(C)(C)O)c(N)c2c1C` [Example B25], the Emax at 30 µM came out at 56%. Also, under setting [1], the EC50 was above 10000 nM.

Turning to `Cc1nnc2sc(C(=O)NC3CCN(c4ccccc4)C3)c(N)c2c1C` (stereo not drawn) [Example B113], the Emax at 30 µM stood at 66%. Further, the EC50 under setting [1] is 24 nM.

Consider `Cc1nnc2sc(C(=O)N3CC(F)(C4CCCCC4)C3)c(N)c2c1C` [Example B296], for which the Emax at 30 µM was 67%. In addition, the EC50 under setting [1] was 280 nM.

With `Cc1nnc2sc(C(=O)NC3CN(C(=O)c4ccc(F)cc4)C3)c(N)c2c1C` [Example B155], the maximal response (Emax) at 30 µM stood at 91%. In addition, under setting [1], the EC50 is 93 nM.

As to `Cc1nnc2sc(C(=O)N3CCC(c4ccccc4)CC3)c(N)c2c1C` [Example B115], the Emax at 30 µM amounted to 38%. For the same molecule, the EC50 under setting [1] was 3900 nM.

Consider `Cc1nnc2sc(C(=O)NCc3ccc4c(c3)CC(=O)N4)c(N)c2c1C` [Example B276], for which the Emax at 30 µM was found to be 67%. Moreover, the EC50 under setting [1] was 360 nM.

In the case of `Cc1nnc2sc(C(=O)NC3CN(C(=O)N(C)c4ccccc4)C3)c(N)c2c1C` [Example B423], the maximal response (Emax) at 30 µM amounted to 59%. In addition, the EC50 under setting [1] was 53 nM.

`Cc1nnc2sc(C(=O)N3CC(c4ccccc4)(N(C)C)C3)c(N)c2c1C` [Example B322]: the Emax at 30 µM was found to be 42%. For the same molecule, the EC50 under setting [1] is 2200 nM.

Consider `Nc1c(C(=O)NCc2ccccc2)sc2nnc3c(c12)CCCC3` [Example B51], for which the Emax at 30 µM came out at 51%. Also, the half-maximal effective concentration (EC50) under setting [1] was 130 nM.

On to `COc1ccc(C#CCNC(=O)c2sc3nnc(C)c(C)c3c2N)cc1` [Example B373], for which the Emax at 30 µM was 66%. Moreover, the EC50 under setting [1] is 170 nM.

Turning to `CCCCC(=O)N1CC2CN(C(=O)c3sc4nnc(C)c(C)c4c3N)CC2C1` (stereo not drawn) [Example B389], the Emax at 30 µM worked out at 47%. Also, the EC50 under setting [1] is 1300 nM.

Consider `[2H]C([2H])(NC(=O)c1sc2nnc(C)c(C)c2c1N)c1ccc(OC)cc1` [Example B37], for which the Emax at 30 µM was found to be 68%. Further, under setting [1], the EC50 was 32 nM.

With `Cc1cc(-c2ccc(CNC(=O)c3sc4nnc(C)c(C)c4c3N)cc2)cnc1Cl` [Example B458], the Emax at 30 µM was 82%. Moreover, the EC50 under setting [1] was 32 nM.

Turning to `Cc1nnc2sc(C(=O)NCCNS(=O)(=O)c3ccc(F)cc3)c(N)c2c1C` [Example B353], the Emax at 30 µM came out at 57%. Besides, the EC50 under setting [1] was 3400 nM.

Turning to `Cc1nnc2sc(C(=O)NCc3ccc(C(C)S(C)(=O)=O)cc3)c(N)c2c1C` (stereo not drawn) [Example B104], the Emax at 30 µM was found to be 63%. For the same molecule, the EC50 under setting [1] is 150 nM.

For `Cc1nnc2sc(C(=O)N3CCC(NS(=O)(=O)CCCc4ccccc4)C3)c(N)c2c1C` (stereo not drawn) [Example B234], the Emax at 30 µM worked out at 50%. For the same molecule, the EC50 under setting [1] was 810 nM.

In the case of `COc1cccc(S(=O)(=O)N2CC(NC(=O)c3sc4nnc(C)c(C)c4c3N)C2)c1` [Example B137], the Emax at 30 µM worked out at 70%. Moreover, the EC50 under setting [1] is 100 nM.

With `Cc1nnc2sc(C(=O)NC3CCN(C(=O)C4CCC4)C3)c(N)c2c1C` (stereo not drawn) [Example B239], the Emax at 30 µM was determined as 84%. Further, the EC50 under setting [1] is 1200 nM.

Consider `Cc1nnc2sc(C(=O)NCc3ccc(S(C)(=O)=O)nc3)c(N)c2c1C` [Example B330], for which the Emax at 30 µM was determined as 68%. In addition, the EC50 under setting [1] is 150 nM.

For `Cc1nnc2sc(C(=O)NCc3ncccn3)c(N)c2c1C` [Example B3], the Emax at 30 µM is 46%. Further, the EC50 under setting [1] is above 10000 nM.

Take `Cc1nnc2sc(C(=O)NCc3ccc(-c4ccc(F)nc4F)cc3)c(N)c2c1C` [Example B495]: the Emax at 30 µM was found to be 72%. Further, under setting [1], the EC50 was 210 nM.

For the molecule `Cc1nnc2sc(C(=O)NC3CCN(c4ccc(F)cc4)C3)c(N)c2c1C` (stereo not drawn) [Example B346], the maximal response (Emax) at 30 µM worked out at 79%. Further, under setting [1], the EC50 was 170 nM.

`Cc1nnc2sc(C(=O)NCc3ccc(S(=O)(=O)C(F)F)cc3Cl)c(N)c2c1C` [Example B507]: the Emax at 30 µM was 66%. The EC50 under setting [1] was 510 nM.

As for `Cc1nnc2sc(C(=O)NCc3ccc(OCC(F)F)cc3)c(N)c2c1C` [Example B176], the maximum response (Emax) at 30 µM stood at 73%. Besides, under setting [1], the EC50 is 23 nM.

Turning to `Nc1c(C(=O)NCc2ccccc2)sc2nnccc12` [Example B19], the Emax at 30 µM turned out to be 53%. Besides, the EC50 under setting [1] was above 10000 nM.

Turning to `CCOc1ccc(CNC(=O)c2sc3nnc(C)c(C)c3c2N)cc1` [Example B198], the Emax at 30 µM was found to be 63%. In addition, the 50% effective concentration (EC50) under setting [1] is 25 nM.

As to `CCS(=O)(=O)N1CC(NC(=O)c2sc3nnc(C)c(C)c3c2N)C1` [Example B142], the Emax at 30 µM came out at 77%. Besides, under setting [1], the EC50 was 290 nM.

On to `CC(=O)N1CC(NC(=O)c2sc3nnc(C)c(C)c3c2N)C1` [Example B134], for which the Emax at 30 µM was 67%. Besides, under setting [1], the EC50 was 520 nM.

For the molecule `Cc1nnc2sc(C(=O)N3CC(F)(c4ccc(S(=O)(=O)C(F)(F)F)cc4)C3)c(N)c2c1C` [Example B378], the Emax at 30 µM amounted to 46%. The EC50 under setting [1] is 4200 nM.

`[2H]C([2H])(NC(=O)c1sc2nnc(C)c(C)c2c1N)c1ccc(S(=O)(=O)C(F)F)cc1` [Example B477]: the Emax at 30 µM amounted to 74%. Further, the EC50 under setting [1] is 23 nM.

For the molecule `Cc1nnc2sc(C(=O)NCc3ccc(-n4ccccc4=O)c(F)c3)c(N)c2c1C` [Example B483], the Emax at 30 µM is 69%. Moreover, the EC50 under setting [1] is 47 nM.

As for `Cc1nnc2sc(C(=O)N3CC4CN(C(=O)C(C)C)CC4C3)c(N)c2c1C` (stereo not drawn) [Example B388], the Emax at 30 µM turned out to be 55%. The EC50 under setting [1] was above 10000 nM.

Consider `Cc1nnc2sc(C(=O)NC3CN(C(=O)OCCN(C)C)C3)c(N)c2c1C` [Example B341], for which the Emax at 30 µM was determined as 74%. Besides, the EC50 under setting [1] is 120 nM.

Turning to `Cc1nnc2sc(C(=O)NCc3cccc(F)c3F)c(N)c2c1C` [Example B15], the Emax at 30 µM was determined as 97%. Moreover, the EC50 under setting [1] was 100 nM.

In the case of `Cc1nnc2sc(C(=O)N3CCC(NC(=O)CC4CCCCC4)C3)c(N)c2c1C` (stereo not drawn) [Example B230], the Emax at 30 µM amounted to 63%. For the same molecule, the EC50 under setting [1] is 3400 nM.

Turning to `Cc1nnc2sc(C(=O)NC3CCN(S(=O)(=O)c4ccccc4OC(F)(F)F)C3)c(N)c2c1C` (stereo not drawn) [Example B209], the maximal response (Emax) at 30 µM came to 68%. Moreover, under setting [1], the EC50 was 310 nM.

Regarding `Cc1nnc2sc(C(=O)Nc3nccs3)c(N)c2c1C` [Example B70], the Emax at 30 µM came to 37%. Moreover, the EC50 under setting [1] was 1200 nM.

For `Cc1nnc2sc(C(=O)N[C@H]3C[C@@H]3c3ccc(S(C)(=O)=O)cc3)c(N)c2c1C` (single isomer, unassigned) [Example B110], the maximum response (Emax) at 30 µM was 62%. The EC50 under setting [1] was 18 nM.

Consider `COc1ccc(CNC(=O)c2sc3nnc(C)c(C)c3c2N)nc1` [Example B508], for which the Emax at 30 µM is 54%. In addition, the EC50 under setting [1] is 770 nM.
